Measurements taken from ChEMBL document CHEMBL4402517, “Rational modification of Mannich base-type derivatives as novel antichagasic compounds: Synthesis, in vitro and in vivo evaluation” (Bioorg Med Chem, 2019).

Assay: Toxicity in BALB/c mouse infected with Trypanosoma cruzi MHOM/Pe/2011/Arequipa;DTU 5 bloodstream trypomastigote assessed as change in serum alkaline phosphatase level in acute phase at 20 mg/kg/day, po administered for 5 consecutive days starting from day 8 post infection and measured at day 14 post infection by biochemical analysis relative to control
Type: organism-based
Details: in vivo

`O=C(Cn1ccnc1[N+](=O)[O-])NCc1ccccc1` [BENZNIDAZOLE] gave an Activity of over 10%.
